{"source": "patent US9567318B2", "about": "“Substituted pyrimidine compounds and uses thereof” (Memorial Sloan-Kettering Cancer Center, priority 2009, dated 2017)", "key": {"[1]": {"target": "T1, Hsc70 and DJA2 (Homo sapiens, UniProt P11142)", "T1 construct": "made in house", "T1 sequence (P11142 whole entry)": "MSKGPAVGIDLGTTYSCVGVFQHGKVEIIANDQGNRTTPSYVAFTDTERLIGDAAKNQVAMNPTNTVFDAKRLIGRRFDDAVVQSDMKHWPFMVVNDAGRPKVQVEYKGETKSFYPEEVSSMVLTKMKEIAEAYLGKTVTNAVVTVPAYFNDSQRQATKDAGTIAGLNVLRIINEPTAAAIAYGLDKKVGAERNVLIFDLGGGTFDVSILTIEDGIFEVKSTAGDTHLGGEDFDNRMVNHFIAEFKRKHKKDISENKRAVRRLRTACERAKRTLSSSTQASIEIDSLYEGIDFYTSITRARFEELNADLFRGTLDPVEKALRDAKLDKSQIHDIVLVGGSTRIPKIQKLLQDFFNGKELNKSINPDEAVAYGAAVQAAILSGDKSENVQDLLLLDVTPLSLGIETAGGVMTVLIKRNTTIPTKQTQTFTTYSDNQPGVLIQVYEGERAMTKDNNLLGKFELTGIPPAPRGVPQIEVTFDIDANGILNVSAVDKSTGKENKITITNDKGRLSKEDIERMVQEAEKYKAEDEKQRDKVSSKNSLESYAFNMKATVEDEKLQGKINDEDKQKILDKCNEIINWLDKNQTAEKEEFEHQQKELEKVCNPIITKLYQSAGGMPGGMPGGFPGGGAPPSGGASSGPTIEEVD", "experiment": "Luciferase refolding by Hsc70 and DJA2", "format": "biochemical", "settings": "30° C.", "experimental": "FIG. 6. YK5 inhibits core biochemical functions of Hsp70s and disrupts the Hsp90/Hsp70 interaction. a) Refolding of denatured luciferase by Hsc70 and DJA2 at 30° C. was measured for the indicated times in the presence of YK5 (100 μM) or vehicle (left), or at 60 min in the presence of indicated concentrations of YK5 (right). b) Hsc70 ATPase rates were measured for reactions at 30° C. with the indicated combinations of Hsc70 and co-chaperones in the presence of vehicle (DMSO) or YK5 (100 μM). ADP production was monitored by thin layer chromatography separation of radiolabeled ADP from ATP and phosphorimaging analysis (lower). […] Proteins isolated with anti-Hsp90 and Hsp70s antibodies (IP: Hsp90 or Hsp70), or present in the cell extract (Lysate) were analyzed by WB. […] Proteins were applied to a native gel and analyzed by immunoblotting. […]\nHsc70 ATPase Activity and Luciferase Refolding. Human Hsc70, DJA1/DNAJA1, DJA2/DNAJA2 and Hsp110/Hsp105/HSPH1 were purified and analyzed. […] Samples at time points were terminated with 37.5 mM EDTA and analyzed by thin layer chromatography on polyethylene-imine cellulose (Mallinckrodt Baker) developed in 0.5 M LiCl and 0.5 M formic acid. The ADP produced was determined by image phosphor quantitation and the linear enzymatic rates (Vmax) were calculated by regression analysis. […]"}, "[2]": {"test_system": "Kasumi-1 cells", "experiment": "Apoptosis, acridine orange/ethidium bromide, Kasumi-1", "format": "cell-based, human", "settings": "10 μM, 24 h", "experimental": "FIG. 13. YK5 has a higher apoptotic effect than Hsp90 inhibitors in select tumors. (a-d) Cells were treated with the indicated concentrations of inhibitors for the times presented. (a,b) Apoptotic cells were quantified by dual acridine orange/ethidium bromide staining as described in Methods. (c,d) Molecular markers of apoptosis (PARP cleavage) were analyzed in cells treated for 24 h with indicated concentrations of inhibitors (c) or for the indicated times with the indicated concentration of inhibitors (d) by western blotting. (e) MDAMB-468 cells were treated with vehicle, TNFα (20 ng/ml), YK5 (1 μM), pretreated with YK5 for 2 h before TNFα or co-treated, and cells were lysed for western blot analysis (left), or cell death was quantified by analyzing the hypodiploid population upon propidium iodine staining (right). […]\nTo determine whether cell death by YK5 was attributable to apoptosis, cells were treated with YK5 and effects on morphology, as well as on several effectors and mediators of apoptosis were analyzed (FIG. 13). To quantify the number of cells undergoing apoptosis, cells were stained with acridine orange/ethidium bromide (AO/EB) and analyzed under a fluorescence microscope for the percentage of viable, apoptotic (early and late) and necrotic cells. […]\nApoptosis-Acridine Orange/Ethidium Bromide. […] Percentage of apoptotic cells was determined from 200-300 cells counted in each group."}, "[3]": {"test_system": "HSF-1 in SKBr3 cells", "experiment": "Native gel electrophoresis, HSF-1 activation", "format": "cell-based, human", "settings": "3 h", "experimental": "FIG. 6. YK5 inhibits core biochemical functions of Hsp70s and disrupts the Hsp90/Hsp70 interaction. a) Refolding of denatured luciferase by Hsc70 and DJA2 at 30° C. was measured for the indicated times in the presence of YK5 (100 μM) or vehicle (left), or at 60 min in the presence of indicated concentrations of YK5 (right). b) Hsc70 ATPase rates were measured for reactions at 30° C. with the indicated combinations of Hsc70 and co-chaperones in the presence of vehicle (DMSO) or YK5 (100 μM). ADP production was monitored by thin layer chromatography separation of radiolabeled ADP from ATP and phosphorimaging analysis (lower). The data are consistent with those obtained from multiple repeat experiments (n≧2). c,d) SKBr3 cells were treated for 24 h with vehicle or indicated concentrations of YK5 (c) or for the indicated times with YK5 (10 μM) (d). Proteins isolated with anti-Hsp90 and Hsp70s antibodies (IP: Hsp90 or Hsp70), or present in the cell extract (Lysate) were analyzed by WB. Specificity of binding was tested with a control IgG. HC=heavy chain; DJA1 and Hdj1=Hsp40 isoforms. e) Unlike Hsp90 inhibitors, YK5 fails to activate HSF-1. […] Proteins were applied to a native gel and analyzed by immunoblotting. The data are consistent with those obtained from multiple repeat experiments (n≧3). f) YK5 was tested in the scanMAX screen (Ambit) against 359 kinases. […]"}}}
{"smiles": "C=CC(=O)Nc1cc(N)nc(Sc2c(OC)nc(N3CCN(C)CC3)nc2OC)n1", "note": "[YK5, N-(6-amino-2-(4,6-dimethoxy-2-(4-methylpiperazin-1-yl)pyrimidin-5-ylthio)pyrimidin-4-yl)acrylamide]", "values": [{"measurement": "refolding of luciferase by purified Hsc70 and DJA2", "setting": "[1]", "result": "dose-dependently inhibited the refolding of luciferase"}, {"measurement": "cells undergoing apoptosis", "setting": "[2]", "result": 70, "unit": "%"}, {"measurement": "HSF-1 activation", "setting": "[3]", "result": "no effect"}]}
